Results taken from patent publication US11702422B2, “Imidazopyridazines as modulators of IL-17” (Janssen Pharmaceutica NV, priority 2020, dated 2023).

Columns and labels:
[1] = biological target: IL-17A(FLAG-Tagged): IL-17RA(His-Tagged) (Homo sapiens, UniProt Q16552, K93Q); assay: IL-17A(FLAG-Tagged): IL-17RA(His-Tagged) Binding Disruption Eu-HTRF Assay; conditions: IL-17A/IL-17RA binding disruption, simple average if tested more than once
In short: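 IC50 comes from a one-site competition fit of the HTRF 665/620 nm ratio. Compound dilutions (2-fold, 22 points) were held 1 h rt with FLAG-tagged IL-17A dimer, then His-tagged IL-17RA plus Eu-cryptate anti-FLAG and D2 anti-His antibodies were added for 2 h rt.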

[2] = system: IL-17A-induced G-CSF production in human normal keratinocyte (NHK); assay: NHK Assay: IL-17A-induced G-CSF production in human normal keratinocytes; format: cell-based; conditions: adult normal human keratinocytes, IL-17A 5 ng/mL, 24 h, simple average if tested more than once
In short: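 HTRF read-out of supernatant G-CSF, quantified from a standard curve, gave IC50 values. Adult keratinocytes, 3000-4000 cells/well, received human IL-17A (5 ng/mL final) pre-mixed 1 h at rt with compound, in 5% FBS and 0.2% DMSO, 24 h at 37° C.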

UniProt Q16552, sequence (Q16552 with tags, fused parts or gaps K93Q): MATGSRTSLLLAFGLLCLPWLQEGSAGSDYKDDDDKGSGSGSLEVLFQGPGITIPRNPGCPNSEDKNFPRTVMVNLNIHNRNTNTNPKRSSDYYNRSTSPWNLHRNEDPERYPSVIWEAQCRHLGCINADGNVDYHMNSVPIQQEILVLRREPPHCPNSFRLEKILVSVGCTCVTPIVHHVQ

Row | Compound | IC50 [1] | IC50 [2] | IC50 ([2]; Homo sapiens, Keratinocyte)
1 | Cc1nocc1C(=O)N[C@H](c1cn2ncc(C(NC(=O)CCC(F)(F)F)C(C)C)cc2n1)C1CCC(F)(F)CC1 (mixture of isomers) [Example 134, N—((S)-(4,4-Difluorocyclohexyl)(7-(2-methyl-1-(4,4,4-trifluorobutanamido)propyl)imidazo[1,2-b]pyridazin-2-yl)methyl)-3-methylisoxazole-4-carboxamide] | 180 nM |  | 110 nM
2 | CC(C)n1nccc1C(=O)N[C@H](c1cn2ncc([C@H](NC(=O)C[C@H](O)C(F)(F)F)C3CC3)cc2n1)C1CCC(F)(F)CC1 (relative stereo) [Example 131, N—((S)-(7-((R*)-Cyclopropyl((S*)-4,4,4-trifluoro-3-hydroxybutanamido)methyl)imidazo[1,2-b]pyridazin-2-yl)(4,4-difluorocyclohexyl)methyl)-1-isopropyl-1H-pyrazole-5-carboxamide] | 87 nM |  | 100 nM
3 | O=C(CCC(F)(F)F)NC(c1cnn2cc([C@@H](NC(=O)c3ccn(CCC(F)(F)F)n3)C3CCC(F)(F)CC3)nc2c1)C1CC1 (single isomer, unassigned) [Example 21, N—((S)-(7-((R*)-Cyclopropyl(4,4,4-trifluorobutanamido)methyl)imidazo[1,2-b]pyridazin-2-yl)(4,4-difluorocyclohexyl)methyl)-1-(3,3,3-trifluoropropyl)-1H-pyrazole-3-carboxamide] | 230 nM |  | 720 nM
4 | N#Cc1cncc(C(=O)N[C@H](c2cn3ncc([C@H](NC(=O)CCC(F)(F)F)C4CC4)cc3n2)C2CCC(F)(F)CC2)c1 [Example 450, 5-Cyano-N—((S)-(7-((R)-cyclopropyl(4,4,4-trifluorobutanamido)methyl)imidazo[1,2-b]pyridazin-2-yl)(4,4-difluorocyclohexyl)methyl)nicotinamide] | 810 nM |  | 1700 nM
5 | COCc1nocc1C(=O)N[C@H](c1cn2ncc([C@H](NC(=O)CCC(F)(F)F)C3CC3)cc2n1)C1CCC(F)(F)CC1 [Example 102, N—[(S)-[7-[(R)-Cyclopropyl-(4,4,4-trifluorobutanoylamino)methyl]imidazo[1,2-b]pyridazin-2-yl]-(4,4-difluorocyclohexyl)methyl]-3-(methoxymethyl)isoxazole-4-carboxamide] | 120 nM |  | 270 nM
6 | CC(C)n1nccc1C(=O)N[C@H](c1cn2ncc([C@H](NC(=O)CC34CC(C3)C4)C3CC3)cc2n1)C1CCC(F)(F)CC1 [Example 248, N—((S)-(7-((R)-(2-(Cicyclo[1.1.1]pentan-1-yl)acetamido)(cyclopropyl)methyl)imidazo[1,2-b]pyridazin-2-yl)(4,4-difluorocyclohexyl)methyl)-1-isopropyl-1H-pyrazole-5-carboxamide] | 49 nM |  | 37 nM
7 | [2H]C([2H])([2H])n1nccc1C(=O)N[C@H](c1cn2ncc([C@H](NC(=O)CCC(F)F)C3CC3)cc2n1)C1CCC(F)(F)CC1 [Example 283, N—((S)-(7-((R)-Cyclopropyl(4,4-difluorobutanamido)methyl)imidazo[1,2-b]pyridazin-2-yl)(4,4-difluorocyclohexyl)methyl)-1-(methyl-d3)-1H-pyrazole-5-carboxamide] | 310 nM |  | 690 nM
8 | CC(C)n1nccc1C(=O)N[C@H](c1cn2ncc(C(NC(=O)C(F)(F)CC3CC3)C3(C#N)CC3)cc2n1)C1CCC(F)(F)CC1 (single isomer, unassigned) [Example 437, N—((S)-(7-((R*)-(1-Cyanocyclopropyl)(3-cyclopropyl-2,2-difluoropropanamido)methyl)imidazo[1,2-b]pyridazin-2-yl)(4,4-difluorocyclohexyl)methyl)-1-isopropyl-1H-pyrazole-5-carboxamide] | 3800 nM |  | > 20000 nM
9 | O=C(CCC(F)(F)F)N[C@@H](c1cnn2cc([C@@H](NC(=O)c3ncnn3CCC(F)F)C3CCC(F)(F)CC3)nc2c1)C1CC1 [Example 46, N—((S)-(7-((R)-Cyclopropyl(4,4,4-trifluorobutanamido)methyl)imidazo[1,2-b]pyridazin-2-yl)(4,4-difluorocyclohexyl)methyl)-1-(3,3-difluoropropyl)-1H-1,2,4-triazole-5-carboxamide] | 130 nM |  | 640 nM
10 | O=C(CC1CC(F)(F)C1)NC(c1cnn2cc([C@@H](NC(=O)c3cnn(CCC(F)(F)F)n3)C3CCC(F)(F)CC3)nc2c1)C1CC1 (single isomer, unassigned) [Example 22, N—((S)-(7-((R*)-Cyclopropyl(2-(3,3-difluorocyclobutyl)acetamido)methyl)imidazo[1,2-b]pyridazin-2-yl)(4,4-difluorocyclohexyl)methyl)-2-(3,3,3-trifluoropropyl)-2H-1,2,3-triazole-4-carboxamide] | 140 nM |  | 320 nM
11 | CC(C)n1nccc1C(=O)N[C@H](c1cn2ncc([C@H](NC(=O)C34CC(F)(C3)C4)C3CC3)cc2n1)C1CCC(F)(F)CC1 [Example 268, N—((S)-(7-((R)-Cyclopropyl(3-fluorobicyclo[1.1.1]pentane-1-carboxamido)methyl)imidazo[1,2-b]pyridazin-2-yl)(4,4-difluorocyclohexyl)methyl)-1-isopropyl-1H-pyrazole-5-carboxamide] | 750 nM |  | 3000 nM
12 | O=C(CCC(F)(F)F)N[C@@H](c1cnn2cc([C@@H](NC(=O)c3nnn(CC(F)F)c3C(F)(F)F)C3CCC(F)(F)CC3)nc2c1)C1CC1 [Example 109, N—((S)-(7-((R)-Cyclopropyl(4,4,4-trifluorobutanamido)methyl)imidazo[1,2-b]pyridazin-2-yl)(4,4-difluorocyclohexyl)methyl)-1-(2,2-difluoroethyl)-5-(trifluoromethyl)-1H-1,2,3-triazole-4-carboxamide] | 440 nM |  | 20000 nM
13 | O=C(CCC(F)(F)F)N[C@@H](c1cnn2cc([C@@H](NC(=O)c3ccnnc3)C3CCC(F)(F)CC3)nc2c1)C1CC1 [Example 457, N—((S)-(7-((R)-Cyclopropyl(4,4,4-trifluorobutanamido)methyl)imidazo[1,2-b]pyridazin-2-yl)(4,4-difluorocyclohexyl)methyl)pyridazine-4-carboxamide] | 1200 nM |  | 2900 nM

Second part, led by results:

Row | IC50 [1] | Compound | IC50 [2] | IC50 ([2]; Homo sapiens, Keratinocyte)
14 | 50 nM | CC(O)c1nonc1C(=O)N[C@H](c1cn2ncc([C@H](NC(=O)CC3CC(F)(F)C3)C3CC3)cc2n1)C1CCC(F)(F)CC1 (single isomer, unassigned) [Example 396, N—((S)-(7-((R)-Cyclopropyl(2-(3,3-difluorocyclobutyl)acetamido)methyl)imidazo[1,2-b]pyridazin-2-yl)(4,4-difluorocyclohexyl)methyl)-4-((S*)-1-hydroxyethyl)-1,2,5-oxadiazole-3-carboxamide] | 190 nM | 
15 | 150 nM | O=C(CC1CC(F)(F)C1)N[C@@H](c1cnn2cc([C@@H](NC(=O)c3nonc3C(O)C3CC3)C3CCC(F)(F)CC3)nc2c1)C1CC1 (single isomer, unassigned) [Example 401, N—((S)-(7-((R)-Cyclopropyl(2-(3,3-difluorocyclobutyl)acetamido)methyl)imidazo[1,2-b]pyridazin-2-yl)(4,4-difluorocyclohexyl)methyl)-4-((R*)-cyclopropyl(hydroxy)methyl)-1,2,5-oxadiazole-3-carboxamide] |  | 57 nM
16 | 100 nM | Cc1nonc1C(=O)N[C@H](c1cn2ncc([C@H](NC(=O)CC3CC(F)(F)C3)C3CC3)cc2n1)[C@@H]1C[C@@H]2[C@H](C1)C2(F)F (relative stereo) [Example 405, N—((S*)-(7-((R)-Cyclopropyl(2-(3,3-difluorocyclobutyl)acetamido)methyl)imidazo[1,2-b]pyridazin-2-yl)((1R,3s,5S)-6,6-difluorobicyclo[3.1.0]hexan-3-yl)methyl)-4-methyl-1,2,5-oxadiazole-3-carboxamide] |  | 350 nM
17 | 86 nM | O=C(CC1CC(F)(F)C1)N[C@@H](c1cnn2cc([C@@H](NC(=O)c3conc3COC(F)F)C3CCC(F)(F)CC3)nc2c1)C1CC1 [Example 294, N—((S)-(7-((R)-Cyclopropyl(2-(3,3-difluorocyclobutyl)acetamido)methyl)imidazo[1,2-b]pyridazin-2-yl)(4,4-difluorocyclohexyl)methyl)-3-((difluoromethoxy)methyl)isoxazole-4-carboxamide] |  | 38 nM
18 | 120 nM | CC(C)(O)c1nonc1C(=O)N[C@H](c1cn2ncc([C@H](NC(=O)CC3CC(F)(F)C3)C3CC3)cc2n1)C1CCC(F)(F)CC1 [Example 410, N—((S)-(7-((R)-Cyclopropyl(2-(3,3-difluorocyclobutyl)acetamido)methyl)imidazo[1,2-b]pyridazin-2-yl)(4,4-difluorocyclohexyl)methyl)-4-(2-hydroxypropan-2-yl)-1,2,5-oxadiazole-3-carboxamide] |  | 230 nM
19 | 180 nM | Cc1nonc1C(=O)N[C@H](c1cn2ncc([C@H](NC(=O)C(F)CC3CC3)C3CC3)cc2n1)C1CCC(F)(F)CC1 (single isomer, unassigned) [Example 345, N—((S)-(7-((R)-Cyclopropyl((S*)-3-cyclopropyl-2-fluoropropanamido)methyl)imidazo[1,2-b]pyridazin-2-yl)(4,4-difluorocyclohexyl)methyl)-4-methyl-1,2,5-oxadiazole-3-carboxamide] | 670 nM | 
